Key:
[1] = molecular target: T1, Mcl-1/Bim interaction, recombinant human Mcl-1 (171-327) (Homo sapiens, UniProt Q07820); assay: Cell free Mcl-1: Bim Affinity Assay (Mcl-1 HTRF); type: binding; settings: TR-FRET, 0.1 nM Mcl-1 (171-327), 0.05 nM biotin-Bim (51-76)
T1 construct: made in house
In short: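 Displacement of biotinylated Bim 51-76 peptide is followed by TR-FRET. Incubation runs overnight. Duplicate points are fitted with a four-parameter sigmoid to yield IC50.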

[2] = test system: OPM-2 human multiple myeloma cell line; assay: Cell Viability Assay (OPM-2 10 FBS); type: cell-based; settings: Homo sapiens, OPM-2, 16 h, OPM-2 cells, 16 h, CellTiter-Glo
In short: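 OPM-2 myeloma cells, 3000/well in medium with 10% FBS, exposed to serially diluted compounds for 16 h at 37° C./5% CO2. Viability read by CellTiter-Glo luminescence; IC50 from 4-parameter logistic fit.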

T1 sequence (Q07820 171-327): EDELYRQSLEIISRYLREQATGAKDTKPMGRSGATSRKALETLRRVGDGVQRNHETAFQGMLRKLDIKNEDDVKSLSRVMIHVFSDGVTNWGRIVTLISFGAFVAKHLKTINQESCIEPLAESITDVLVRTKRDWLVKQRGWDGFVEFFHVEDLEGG

SMILES | IC50 [1] [µM] | IC50 [2] [µM]
C[C@@H]1[C@@H](C)C/C=C/C(=O)[C@@H]2CC[C@H]2CN2C[C@@]3(CCCc4cc(Cl)ccc43)COc3ccc(cc32)C(=O)NS1(=O)=O [Example 349, (1S,3′R,6′R,8′E,11′S,12′R)-6-chloro-11′,12′-dimethyl-3,4-dihydro-2H,7′H,15′H-spiro[naphthalene-1,22′-[20]oxa[13]thia[1,14]diazatetracyclo[14.7.2.0^3,6.0^19,24]pentacosa [8,16,18,24]tetraene]-7′,15′-dione 13′,13′-dioxide] | 0.00383 | 1.05
COCCOCCO[C@H]1/C=C/C[C@H](C)[C@@H](C)S(=O)(=O)NC(=O)c2ccc3c(c2)N(C[C@@H]2CC[C@H]21)C[C@@]1(CCCc2cc(Cl)ccc21)CO3 [Example 377, (1S,3′R,6′R,7′S,8′E,11′S,12′R)-6-chloro-7′-(2-(2-methoxyethoxy)ethoxy)-11′,12′-dimethyl-3,4-dihydro-2H,15′H-spiro[naphthalene-1,22′-[20]oxa[13]thia[1,14]diazatetracyclo[14.7.2.0^3,6.0^19,24]pentacosa[8,16,18,24]tetraen]-15′-one 13′,13′-dioxide] | 0.000303 | 0.18
COCCOCCOCCO[C@H]1/C=C/C[C@H](C)[C@@H](C)S(=O)(=O)NC(=O)c2ccc3c(c2)N(C[C@@H]2CC[C@H]21)C[C@@]1(CCCc2cc(Cl)ccc21)CO3 [Example 378, (1S,3′R,6′R,7′S,8′E,11′S,12′R)-6-chloro-7′-(2-(2-(2-methoxyethoxy)ethoxy)ethoxy)-11′,12′-dimethyl-3,4-dihydro-2H,15′H-spiro[naphthalene-1,22′-[20]oxa[13]thia[1,14]diazatetracyclo[14.7.2.0^3,6.0^19,24]pentacosa[8,16,18,24]tetraen]-15′-one 13′,13′-dioxide] | 0.00024 | 0.14
COCCOCCOCCOCCO[C@H]1/C=C/C[C@H](C)[C@@H](C)S(=O)(=O)NC(=O)c2ccc3c(c2)N(C[C@@H]2CC[C@H]21)C[C@@]1(CCCc2cc(Cl)ccc21)CO3 [Example 379, (1S,3′R,6′R,7′S,8′E,11′S,12′R)-6-chloro-11′,12′-dimethyl-7′-(3,6,9,12-tetraoxatridec-1-yloxy)-3,4-dihydro-2H,15′H-spiro[naphthalene-1,22′-[20]oxa[13]thia[1,14]diazatetracyclo[14.7.2.0^3,6.0^19,24]pentacosa[8,16,18,24]tetraen]-15′-one 13′,13′-dioxide] | 0.000211 | 0.128
CC1CC=CC(OCC(C)N2CCOCC2)C2CCC2CN2CC3(CCCc4cc(Cl)ccc43)COc3ccc(cc32)C(=O)NS(=O)(=O)C1CC1CC1 (centres unmarked) [Example 387] | 0.00164 | 1.25
C[C@@H]1CC/C=C/[C@H](OCC(=O)O)[C@@H]2CC[C@H]2CN2C[C@@]3(CCCc4cc(Cl)ccc43)COc3ccc(cc32)C(=O)NS1(=O)=O [Example 407, (((1S,3′R,6′R,7′S,8′E,12′R)-6-chloro-12′-methyl-13′,13′-dioxido-15′-oxo-3,4-dihydro-2H-spiro[naphthalene-1,22′-[20]oxa[13]thia[1,14]diazatetracyclo[14.7.2.0^3,6.0^19,24]pentacosa [8,16,18,24]tetraen]-7′-yl)oxy)acetic acid] | 0.000127 | 14.4
COC(=O)CO[C@H]1/C=C/CC[C@@H](C)S(=O)(=O)NC(=O)c2ccc3c(c2)N(C[C@@H]2CC[C@H]21)C[C@@]1(CCCc2cc(Cl)ccc21)CO3 [Example 408, methyl(((1S,3′R,6′R,7′S,8′E,12′R)-6-chloro-12′-methyl-13′,13′-dioxido-15′-oxo-3,4-dihydro-2H-spiro[naphthalene-1,22′-[20]oxa[13]thia[1,14]diazatetracyclo[14.7.2.0^3,6.0^19,24]pentacosa [8,16,18,24]tetraen]-7′-yl)oxy)acetate] | 0.000312 | 0.0988

Reference: US12091425B2 (AMGEN INC., priority 2016, dated 2024)
